System: Ribosomal RNA A-site
Assay: Binding affinity of aminoglycoside to 16S ribosomal RNA A-site in Escherichia coli
Type: nucleic-acid assay

Row | SMILES | Kd [nM]
1 | NCC1OC(OC2C(N)CC(N)C(O)C2OC2OC(CO)C(OC3OC(CN)C(O)C(O)C3O)C2O)C(N)C(O)C1O (stereo not drawn) | 700
2 | NCCC1C(CO)OC(OC2C(O)C(N)CC(N)C2OC2OC(CN)C(O)C(O)C2N)C1O (stereo not drawn) | 1700
3 | NCCCNCC[C@H]1[C@@H](O)[C@H](O[C@H]2[C@@H](O)[C@H](N)C[C@H](N)[C@H]2O[C@H]2O[C@H](CN)[C@H](O)[C@H](O)[C@H]2N)O[C@@H]1CO | 260
4 | NC[C@H]1O[C@H](O[C@H]2[C@@H](O[C@@H]3O[C@H](CO)[C@@H](O[C@@H]4O[C@H](CO)[C@H](O)[C@H](O)[C@H]4O)[C@H]3O)[C@@H](O)[C@H](N)C[C@@H]2N)[C@H](N)[C@H](O)[C@@H]1O | 28000
5 | NC[C@H]1O[C@H](O[C@H]2[C@H](O)[C@@H](O[C@H]3O[C@H](CO)[C@@H](O)[C@H](N)[C@H]3O)[C@H](N)C[C@@H]2N)[C@H](N)[C@@H](O)[C@@H]1O [BEKANAMYCIN] | 1400
6 | NCCC(O)C(=O)N[C@@H]1C[C@H](N)[C@@H](O[C@H]2O[C@H](CN)[C@@H](O)[C@H](O)[C@H]2N)[C@@H](O[C@@H]2O[C@H](CO)[C@@H](O)[C@H]2O)[C@H]1O (stereo partly drawn) [BUTIROSIN B] | 27000
7 | NC[C@@H]1O[C@H](O[C@H]2[C@@H](O)[C@H](O[C@@H]3[C@@H](O)[C@H](N)C[C@H](N)[C@H]3O[C@H]3O[C@H](CN)[C@@H](O)[C@H](O)[C@H]3N)O[C@@H]2CO)[C@H](N)[C@@H](O)[C@@H]1O [FRAMYCETIN] | 19
8 | NC[C@@H]1O[C@@H](O[C@H]2[C@H](O)[C@@H](O[C@H]3O[C@H](CO)[C@@H](O)[C@H](N)[C@H]3O)[C@H](N)C[C@@H]2N)[C@@H](O)[C@H](O)[C@H]1O [KANAMYCIN A] | 18000
9 | NC[C@H]1O[C@H](O[C@H]2[C@H](O)[C@@H](O)[C@H](N)C[C@@H]2N)[C@H](N)[C@@H](O)[C@@H]1O [NEAMINE] | 7800
10 | N[C@H]1[C@@H](O[C@H]2[C@H](O)[C@@H](O)[C@H](N)C[C@@H]2N)O[C@H](CO)[C@@H](O)[C@@H]1O [PAROMAMINE] | < 100000
11 | NC[C@@H]1O[C@H](O[C@H]2[C@@H](O)[C@H](O[C@@H]3[C@@H](O)[C@H](N)C[C@H](N)[C@H]3O[C@H]3O[C@H](CO)[C@@H](O)[C@H](O)[C@H]3N)O[C@@H]2CO)[C@H](N)[C@@H](O)[C@@H]1O [PAROMOMYCIN] | 200
12 | NC[C@H]1O[C@H](O[C@H]2[C@H](O[C@@H]3O[C@H](CO)[C@@H](O)[C@H]3O)[C@@H](O)[C@H](N)C[C@@H]2N)[C@H](N)[C@@H](O)[C@@H]1O [RIBOSTAMYCIN] | 25000
13 | NC[C@H]1O[C@H](O[C@H]2[C@H](O)[C@@H](O[C@H]3O[C@H](CO)[C@@H](O)[C@H](N)[C@H]3O)[C@H](N)C[C@@H]2N)[C@H](N)C[C@@H]1O [TOBRAMYCIN] | 1500

From ChEMBL document CHEMBL1133989, “Which aminoglycoside ring is most important for binding? A hydropathic analysis of gentamicin, paromomycin, and analogues” (Bioorg Med Chem Lett, 2001)
